pKd: −log10 of the molar value.
What was measured:
Tribolium castaneum = assay: Red flour beetle adult toxicity test, toxin mixed into diet; assay type: in vivo; details: 1000 µg per g of food, feeding for 15 days
Protocol: The red flour beetle Tribolium castaneum (Coleoptera), was provided by François Bonneton (Centre de Génétique Moléculaire Cellulaire, Lyon, France). Tests were performed on adults by mixing the toxin into the diet (wheat flour 95%, yeast extract 5%).
(§1) All toxicity assays were carried out using a mixture of PA1b isoforms (98% purity by HPLC). All tests were performed on at least 30 insects for assays and for control test (without toxin), except for the three aphid species (50 insects) and for Trichogramma (more than 300 eggs by assays). When adults were used, the insects were synchronized at the imaginal molt. The statistical analyses were performed using the JMP software (SAS, Grégy-sur-Yerres FRA).

Culex pipiens = assay: Mosquito larval bioassay, toxin added to water; assay type: in vivo; details: 250 µg.ml^-1 of water
Protocol: The mosquito bioassay was performed on larvae of Culex pipiens (Diptera) in water. The toxin was added directly to the water, and the mortality of L3 larvae was recorded daily.
as §1

E. coli = assay: Antimicrobial test, bacterial survival; assay type: cell-based; details: increasing toxin concentration up to 64 µg-ml^-1, 24 and 48 hours
Protocol: (§2) A possible antimicrobial and antifungal activity of PA1b was next tested on four bacterial and three fungal species. The experiments were done using an increasing toxin concentration, up to 64 µg-ml^-1.

E. faecium = assay: Antimicrobial test, bacterial survival; assay type: cell-based; details: increasing toxin concentration up to 64 µg-ml^-1, 24 and 48 hours
Protocol: as §2

P. aeruginosa = assay: Antimicrobial test, bacterial survival; assay type: cell-based; details: increasing toxin concentration up to 64 µg-ml^-1, 24 and 48 hours
Protocol: as §2

S. aureus = assay: Antimicrobial test, bacterial survival; assay type: cell-based; details: increasing toxin concentration up to 64 µg-ml^-1, 24 and 48 hours
Protocol: as §2

[1] = biological target: PA1b binding protein on membrane extracts; assay: 125I-PA1b binding (competition) on insect membrane extracts; parameters: species or system Bruchus pisorum; details: B. pisorum membrane extracts; competition with purified 3741 isoform
Protocol: (§3) The isolation of membrane proteins for binding studies was performed as described by Gressent et al. ([2003]). For PA1b degradation tests, insect extracts were prepared as follows, 1 g of insects were ground with a mortar and pestle in liquid nitrogen. The resulting powder was resuspended in 2 ml of extraction buffer (20 mM Tris-HCl pH 8; 0.25 M sucrose; 2 mM MgCl2). The slurry was centrifuged for 2 min at 1000 g, and the supernatant was stored at -2O°C until required. All the operations were performed at 4°C.
(§4) The peptidic toxin PA1b-3471 isoform was labelled with I^125 to a specific radioactivity of about 900 Ci.mmor^-1, and then used for binding studies with membrane extracts, according to Gressent et al. ([2003]).
(§5) PA1b binding activity was present in all insect species, except for the resistant weevil strains and the pea specific pest Bruchus pisorum, regardless of the sensitivity or insensitivity of these insects to PA1b toxicity, as evaluated from our insect bioassays. […] The relative abundance of the binding sites was also slightly different in this group of species, varying from 10 pmol/mg of protein for T. pretiosum to a maximum of 79 pmol/mg of protein for M. persicae.

[2] = biological target: PA1b binding protein on membrane extracts; assay: as above; parameters: species or system Ephestia kuehniella; details: E. kuehniella membrane extracts; competition with purified 3741 isoform
Protocol: as §3, §4, §5

[3] = test system: A. gossypii protein extracts; assay: PA1b degradation assay with total insect protein extract; assay type: in vitro ADME, Aphis gossypii; details: 200 µg A. gossypii (L4) proteins, 10 µg PA1b in 100 µl, 20 mM buffers pH 3 to 9, 30°C, one night incubation; C18 HPLC, UV 210 nm; mean of triplicates
Protocol: as §3
PA1b degradation assays were performed using 10 µg of peptide (PA1b isoform mixture) in a final volume of 100 µl buffer. […]
(§6) For all assays, after a one night incubation, 150 µl of methanol were added to the mixture and incubated for 60 min at 4°C. […] PA1b peptide isoforms were detected by their absorbance at 210 nm, quantified by the measurement of the peak area and with reference to known quantities of pure peptide isoform used as standards.
Figure 3. […] Degradation of PA1b was monitored after incubation by reverse-phase HPLC. […]

[4] = test system: gut extracts from M. brassicae; assay type: in vitro ADME, Mamestra brassicae; details: 400 µg M. brassicae gut proteins per assay, 10 µg PA1b, pH 3 to 9, 30°C, one night incubation; C18 HPLC; data not shown
Protocol: PA1b degradation assays were performed using 10 µg of peptide (PA1b isoform mixture) in a final volume of 100 µl buffer. Assays with commercially (SIGMA, www.sigmaaldrich.com) available enzymes were performed in Glycine-NaOH buffer (20 mM pH 9) at 3O°C for proteinase K (E.C. 3.4.21.64), Tris-HCl buffer (20 mM pH 7.5) + EDTA 10 mM at 37°C for pronase E type XIV, MES-NaOH buffer (20 mM pH 6.2) at 25°C for papain (E.C. 3.4.22.2), Tris-HCl buffer (20 mM pH 7.8) at 25°C for chymotrypsin (E.C. 3.4.21.1), and Tris-HCl buffer (20 mM pH 7.6) at 25°C for trypsin (E.C. 3.4.21.4). Assays were done with 10 µg of each enzyme, and control assays were performed with 10 µg of enzymes denaturated by 10 min boiling. Assays with insect extracts were carried out in 20 mM buffers from pH 3 to 9 (Glycine-HCl, pH 3; sodium acetate pH 4-5; MES-NaOH pH 6; Tris-HCl pH 7-8; Glycine NaOH pH 9) at 3O°C. […]
as §6, with “standards. […]” for “standards.”

Sequence: ASCNGVCSPFEMPPCGTSACRCIPVGLVIGYCR NPSG (bicyclic or more) [PA1b, plant peptide of 37 amino acids purified from pea (Pisum sativum) seeds; entomotoxic cystine-knot peptide with three disulfide bonds]
- effects on adults (Tribolium castaneum): no effects were detectable
- survival of adults (Tribolium castaneum): all insects survived
- survival of L3 larvae (Culex pipiens; after one day): 100%
- survival of L3 larvae (Culex pipiens; after two days): 0%
- effect on bacterial survival (E. coli): no effect was detected
- effect on bacterial survival (E. faecium): no effect was detected
- effect on bacterial survival (P. aeruginosa): no effect was detected
- effect on bacterial survival (S. aureus): no effect was detected
- Kd / binding [1]: no binding detectable
- pKd [2]: 7.70
- recovered PA1b after incubation with insect proteins versus heat-denatured control [3]: very close to the control test
- recovery of PA1b after incubation with native or heat inactivated gut proteins [4]: no difference
